The results in this text go back to patent publication US20040241708A1, “Recombinant vector for transforming strain to detect benzoic acid and derivatives thereof, transformant containing the recombinant vector, and method for detecting benzoic acid and derivatives thereof using the transformant” (priority 2003, published 2004).

The experiment deals with transformant EBNAG1 (E. coli RFM443/pNAG1, nagR-PnagG::luxCDABE). Briefly: Detectability of transformant EBNAG1 on benzoic acid and derivatives (bioluminescence response). It is filed as cell-based, Escherichia coli. To be noted: for minimal effective concentration: Escherichia coli, read-out: MDC (Minimum detection concentration); for bioluminescence intensity: EBNAG1, 0.1953125-12.5 mM, 3 hours after seeding, FIGS. 3a and 3b. The method, then: The EBNAG1 strain was cultivated in a 100 ml LB medium supplemented with 50 μg/ml ampicillin at 30° C. until the absorbance reached 0.08 (at 600 nm). 100 μl of aliquot was taken from the culture for the measurement of the bioluminescence intensity, and was then poured on each well of an opaque96-well plate [Microlite™, Thermo Labsystems, USA] containing chemicals to be tested (benzoic acid concentrations: 12.5, 6.25, 3.125, 1.5625, 0.78125, 0.390625 and 0.1953125 mM, and salicylic acid concentrations: 12.5, 6.25, 3.125, 1.5625, 0.78125, 0.390625 and 0.1953125 mM). The well plates were placed in a 96-well microtiter plate reader (MLX Microtiter® Plate Luminometer, DYNEX Technology, USA) to measure the bioluminescence intensity.
FIGS. 3a and 3b show the results of bioluminescent signals obtained from EBNAG1 after seeding benzoic acid and salicylic acid as a representative benzoic acid derivative at various concentrations, respectively.

In the case of `O=C(O)c1ccc(O)cc1O` [2,4-Dihydroxybenzoic acid], the minimal effective concentration stood at 3130 µM.

Consider `O=C(O)c1ccc(O)c(O)c1` [3,4-Dihydroxybenzoic acid], for which the minimal effective concentration came to 6250 µM.

For the compound `COc1ccc(CO)cc1OC` [3,4-Dimethoxybenzylalcohol], the minimal effective concentration was determined as 390 µM.

Consider `O=C(O)c1cc(O)cc(O)c1` [3,5-Dihydroxybenzoic acid], for which the minimal effective concentration stood at 3130 µM.

As to `O=C(O)c1ccc(Cl)cc1O` [4-Chlorosalicylic acid], the minimal effective concentration was less than 390 µM.

For the compound `O=C(O)c1cc(Cl)ccc1O` [5-Chlorosalicylic acid], the minimal effective concentration was 390 µM.

On to `O=C(O)c1ccccc1` [Benzoic acid], for which the bioluminescence intensity entry is reported as “increased in proportion to the benzoic acid concentrations” and the minimal effective concentration was determined as 390 µM.

For `O=C(O)c1ccccc1O` [Salicylic acid], the bioluminescence intensity result is given as “increased in proportion to the salicylic acid concentrations” and the minimal effective concentration worked out at 195 µM.
